Active and inactive are the calls of the source. The calls are words filed in the database; no cut-off is given here.
Experiments:
[1] = tested on: H5N1 subtype; experiment: Antiviral activity against pseudotyped Influenza A virus H5N1 (Goose/Qinghai/59/05) infected in human A549 cells assessed as inhibition of viral replication at 12.5 uM incubated for 48 hrs by luciferase reporter gene assay relative to control; type: functional; conditions: Goose/Qinghai/59/05, A549, 48 h
[2] = tested on: H5N1 subtype; experiment: Antiviral activity against pseudotyped Influenza A virus H5N1 (Goose/Qinghai/59/05) infected in human A549 cells assessed as inhibition of viral replication at incubated for 48 hrs by luciferase reporter gene assay; type: functional, organism-based; conditions: Goose/Qinghai/59/05, A549, 48 h
[3] = tested on: Influenza A virus; experiment: Antiviral activity against Influenza A virus (A/Puerto Rico/8/1934(H1N1)) infected in MDCK cells incubated for 1 hr and measured after 36 hrs by PR8-PB2 Gaussia luciferase reporter gene assay; type: functional, organism-based
[4] = tested on: Influenza A virus; experiment: Antiviral activity against Influenza A virus (A/Puerto Rico/8/1934(H1N1)) infected in human A549 cells assessed as decrease in viral titer at 1 uM by standard plaque assay; type: functional, organism-based
[5] = tested on: H5N1 subtype; experiment: Antiviral activity against Influenza A virus (A/Viet Nam/1203/2004(H5N1)) infected in human A549 cells assessed as decrease in viral titer at 1 uM by standard plaque assay; type: functional, organism-based
[6] = tested on: H5N1 subtype; experiment: Antiviral activity against Influenza A virus (A/Viet Nam/1203/2004(H5N1)) infected in human A549 cells assessed as decrease in viral titer at 20 uM by standard plaque assay; type: functional

Row | Compound | inhibition at 12.5 µM [1] [%] | EC50 [2] [nM] | EC50 [3] [nM] | other results
1 | CC(C)N1CCC(NC(=O)c2c(Cl)cccc2C(F)(F)F)CC1 | 85 | 5620 | 587 | –
2 | CC(C)N1CCCC(NC(=O)c2c(Cl)cccc2Cl)C1 (stereo unspecified) | 14 | – | – | –
3 | CC(C)N1CCC(C)(NC(=O)c2c(Cl)cccc2Cl)CC1 | 75 | – | – | –
4 | CC(C)CN1CCC(NC(=O)c2ccc(C(F)(F)F)cc2Cl)CC1 | 73 | – | – | –
5 | CC(C)N1CCC(NC(=O)c2ncc(Cl)cc2Cl)CC1 | 39 | – | – | –
6 | CC(C)N1CCC(CNC(=O)c2c(Cl)cccc2Cl)CC1 | 23 | – | – | –
7 | CC(C)(C)N1CCC(NC(=O)c2c(Cl)cccc2Cl)CC1 | 99 | 510 | 113 | inhibition [4]: Active; inhibition [5]: Active; inhibition at 20 µM [6]: 100%
8 | CC(C)N1CCC(NC(=O)c2ncccc2Cl)CC1 | 40 | – | – | –
9 | CC(C)N1CCC(NC(=O)c2c(Cl)cccc2Cl)C(F)(F)C1 (racemic) | 77 | – | – | –
10 | CC(C)N1CC[C@H](NC(=O)c2c(Cl)cccc2Cl)[C@@H](F)C1 | 87 | 1810 | 885 | –
11 | CC(C)N1CCC(NC(=O)c2ncc(C(F)(F)F)cc2Cl)CC1 | 76 | – | – | –
12 | CC(C)N1CCCC(NC(=O)c2c(Cl)cccc2Cl)CC1 (stereo unspecified) | 71 | – | – | –
13 | CC(C)N1CCC2(CC1)OCCN2C(=O)c1c(Cl)cccc1Cl | 19 | – | – | –
14 | CC(C)N1CCC(N(C)C(=O)c2c(Cl)cccc2Cl)CC1 | 91 | 4450 | 724 | –
15 | O=C(NC1CCN(C2CCCCC2)CC1)c1ccc(C(F)(F)F)cc1Cl | 98 | 910 | 505 | –
16 | O=C(NC1CCN(C2COC2)CC1)c1c(Cl)cccc1Cl | 7 | – | – | –
17 | CC(C)N1CCC(NC(=O)c2c(Cl)cccc2Cl)CC1 | 90 | 3040 | 272 | inhibition [4]: Active; inhibition [5]: Active; inhibition at 20 µM [6]: 100%
18 | CC(C)N1CCN(C(=O)c2c(Cl)cccc2Cl)CC1 | 4 | – | – | –
